Data from article PMC5764437, “Discovery of novel, orally bioavailable, antileishmanial compounds using phenotypic screening” (PLoS Neglected Tropical Diseases, 2017).
Read-outs that look alike come from different tables or passages of the source.

Legend:
[1] = Single oral dose pharmacokinetic study in mice; assay type: in vivo, mouse; details: single oral gavage; for half-life: read-out: t½ (converted)
Protocol: Female BALB/c mice of 17-21 grams were purchased from Charles River Laboratories (Wilmington, MA). Food and water were provided ad libitum. […] All animal received 100 ± 20 µL of compound solution in formulation (10/10/40/40: […] Animals were euthanized via cardiac puncture at 48 h post injection. Blood samples were treated with 10 µL of EDTA sodium solution to prevent coagulation. […] The supernatant (40 µL) was collected and mixed with 2 parts of Milli-Q water and centrifuged again at 4000 rpm for 20 min at 4 °C. Plasma concentration was determined with a partially validated LC/MS-MS assay with multiple reaction monitoring detection (AB Sciex, Framingham, MA). The summary of the LC/MS/MS method is provided below. The assay lower limit of quantification (LLOQ) was 4.57 nM in plasma. […] The Area Under the Concentration-Time Curve (AUC) was calculated with the linear trapezoidal, linear interpolation rule using mean concentrations and nominal times. The standard error of the AUC to the last time point (AUClast) was generated using the sparse sampling option. The terminal elimination rate (Lambda_z) and half-life (HL_Lambda_z) was determined using the default “Best Fit” method. The predicted AUC from the last time point to infinity (AUCINF_pred) was calculated as AUClast plus Clast(pred)/Lambda_z. Clearance (CL or CL/F) was calculated as Dose/AUCINF_pred. If ≥2/3rds of the observed concentrations were below LLOQ, the mean concentration was treated missing. The calibration curve was obtained as follows. The calibration was done using the same biological matrices to ensure similar recovery. […] All concentrations in the calibration range must be no more than 20% deviation. If there were any points with more than 20% deviation on the high or low end, the calibration range would be truncated. If an outlier occurred in the middle of the curve, the whole curve would be re-done. The signal: noise of the compound peak at the H/LLOQ must be greater than 5. […] The samples were tested on the same or the second day.

[2] = Parallel Artificial Membrane Permeability Assay (PAMPA); details: pH 7.4
Protocol: Parallel Artificial Membrane Permeability Assay (PAMPA) was conducted by Biomek FX lab automation workstation (Beckman Coulter, Inc.) and PAMPA evolution 96 command software (pION Inc.). A 3 µL aliquot of […] test compound stock in DMSO was mixed with 597 µL of isotonic citrate phosphate buffered saline to make diluted test compound. Diluted test compound (150 µL) was transferred to a UV plate (pION Inc.) and the UV spectrum was read as the reference plate. The membrane on a pre-loaded PAMPA sandwich (pION Inc.) was painted with 4 µL GIT lipid (pION Inc.). The acceptor chamber was then filled with 200 µL acceptor solution buffer, (pION Inc.), and the donor chamber was filled with 180 µL diluted test compound. The PAMPA sandwich was assembled, placed on the Gut-Box and stirred for 30 min. The Aqueous Boundary Layer was set to 40 µm for stirring. The UV spectrum (250-500 nm) of the donor and the acceptor solutions were recorded. The permeability coefficient was calculated using PAMPA Evolution 96 Command software (pION Inc.) based on the AUC of the reference plate, the donor plate and the acceptor plate. All compounds were tested in triplicate.

[3] = system: L. mexicana intracellular amastigotes; test: Growth inhibition of intracellular amastigotes in J774A.1 macrophages (Renilla luciferase luminescence); assay type: cell-based; details: Leishmania mexicana, J774.A1; intracellular amastigotes in J774A.1 macrophages; mean ± standard deviation, n = 2; read-out: L. mexicana EC50
Protocol: L. mexicana (MNYZ/BZ/62/M379) or L. donovani (LdBob strain) parasites expressing the Renilla luciferase gene from a rRNA gene locus were used to infect J774A.1 macrophages. Growth of intracellular amastigotes was measured using a luminescence assay, as detailed previously. The growth inhibitor activities of compounds were tested against bloodstream form Lister 427 T. brucei in 96-well plates containing 1 X 10^5 parasites per well in 0.2 ml HMI-11 medium (Gibco/Thermo Fisher). Compounds (2 μl volumes in DMSO) were added to the parasites using serial 3-fold dilutions to cover a range of concentrations from about 10 μM to 1 nM. After 48 h incubation at 37°C under a humidified 5% CO2 atmosphere, 10 μl of 10% Triton X-100 and 100 X stock SYBR Green I (Sigma-Aldrich) in PBS was added and florescence measured (excitation 497 nm; emission 520 nm) after 1 h incubation in the dark using a Spectra Max Gemini XPS fluorimeter (Molecular Devices). Data were log transformed and EC50 values were determined using GraphPad Prism 6 (GraphPad Software). In the absence of growth inhibiting compounds, the parasites grew from an initial density of 5 X 10^5 cells/mL to ~3 X 10^6 cells/mL.
[…]. These were chosen as candidates for further study. From these 230 compounds, we were able to repurchase 113 from commercial vendors. These compounds were characterized for purity by ultra-performance liquid chromatography using ultraviolet spectroscopy and evaporative light scattering detection and identity by mass spectrometry. All validated compounds were profiled for activity against intracellular amastigotes, the disease-causing stage of the life cycle. Intracellular amastigote activity was determined using a strain of L. mexicana in which the Renilla luciferase gene was integrated into the rRNA locus, allowing robust expression for measuring amastigote growth within cultured macrophages. All 113 compounds were applied at 1 μM concentration for 96 h to J774A.1 macrophages infected with L. mexicana luciferase-expressing parasites. […].
Next, we generated dose-response curves for these 55 compounds against intracellular amastigotes and independently against J774A.1 macrophages to establish the relative potency of each compound against the pathogen and its host cell. […]. The nine remaining compounds, each representing a unique chemical scaffold (compounds 1–9, Fig 3), were designated top hits (Fig 1).

[4] = female, BALB/c, mouse, plasma, po, 25 mg/kg
[5] = female, BALB/c, mouse, plasma, po, 50 mg/kg

For COc1ccc(-c2c(C(F)(F)F)oc3c(CN4CCN(C)CC4)c(O)ccc3c2=O)cc1OC [Compound 4], the Cmax [1, 4] was 3.2 µM, the Tmax [1, 4] was ≤ 1 h and the half-life ([1]; female, BALB/c, mouse, plasma, po, 25 mg/kg, 25 mg/kg, plasma) was 3 h. It also gave an AUC ([1]; female, BALB/c, mouse, 25 mg/kg, plasma) of 16.7 µM·h, a CL ([1]; 25 mg/kg) of 52.2 mL/min/kg and a Vd ([1]; 25 mg/kg) of 14.2 L/kg. The t½ ([1]; 25 mg/kg, plasma) was 3.2 h, the Papp at 30 min, 0.05 µM [2] was 375 ×10⁻⁶ cm/s and the EC50 [3] was 80 nM.
Cc1ccc(-c2nc3ccccc3s2)cc1NC(=O)c1cc([N+](=O)[O-])c(N2CCN(C)CC2)cc1Cl [Compound 5] gave a Cmax [1, 5] of 6.49 µM, a Tmax [1, 5] of 4 h and a half-life ([1]; female, BALB/c, mouse, plasma, po, 50 mg/kg, 50 mg/kg, plasma) of 7.1 h. It also gave an AUC ([1]; female, BALB/c, mouse, 50 mg/kg, plasma) of 83.2 µM·h, a CL ([1]; 50 mg/kg) of 19.2 mL/min/kg and a Vd ([1]; 50 mg/kg) of 11.8 L/kg. For the same compound, the Cmax ([1]; 50 mg/kg, plasma) was 6.5 µM, the Papp at 30 min, 0.05 µM [2] was 237 ×10⁻⁶ cm/s and the EC50 [3] was 22 nM.
